From patent EP0652220A1, “CEPHALOSPORIN DERIVATIVE” (TAISHO PHARMACEUTICAL CO. LTD, priority 1992, dated 1994)

What was measured:
[1] = system: Enterococcus faecalis CSJ 1212; assay: antibacterial test, agar plate dilution method; type: cell-based; conditions: inoculum size 10⁶ cells/ml
Experimental: (§1) The antibacterial test against various bacteria was carried out by the agar plate dilution method (inoculum size : 10⁶ cells/ml), and the results are shown in the following Table 1.

[2] = system: Eschelichia coli NIHJ JC-2; assay: antibacterial test, agar plate dilution method; type: cell-based; conditions: inoculum size 10⁶ cells/ml
Experimental: as §1

[3] = system: Haemophilus influenzae ATCC 19418; assay: antibacterial test, agar plate dilution method; type: cell-based; conditions: inoculum size 10⁶ cells/ml
Experimental: as §1

[4] = system: Klebsiella pneumoniae IFO 3317; assay: antibacterial test, agar plate dilution method; type: cell-based; conditions: inoculum size 10⁶ cells/ml
Experimental: as §1

[5] = system: Morganella morganii IID 602; assay: antibacterial test, agar plate dilution method; type: cell-based; conditions: inoculum size 10⁶ cells/ml
Experimental: as §1

[6] = system: Proteus mirabilis IFO 3849; assay: antibacterial test, agar plate dilution method; type: cell-based; conditions: inoculum size 10⁶ cells/ml
Experimental: as §1

[7] = system: Serratia marcescens IID 618; assay: antibacterial test, agar plate dilution method; type: cell-based; conditions: inoculum size 10⁶ cells/ml
Experimental: as §1

[8] = system: Staphylococcus aureus 209P-JP; assay: antibacterial test, agar plate dilution method; type: cell-based; conditions: inoculum size 10⁶ cells/ml
Experimental: as §1

[9] = system: Staphylococcus epidermidis sp-al-1; assay: antibacterial test, agar plate dilution method; type: cell-based; conditions: inoculum size 10⁶ cells/ml
Experimental: as §1

[10] = mortality after a single intraperitoneal dose in mice; type: in vivo, male ICR strain mice; conditions: single dose 4,000 mg/kg intraperitoneal, 50 ml/kg (saline), 3 mice per group, observation for 14 days
Experimental: The mortality after a single dose of the test drug was measured using 3 male ICR strain mice (4 weeks old) for each group. Administration route : intraperitoneal Administration volume : 50 ml/kg (saline) Dose : 4,000 mg/kg Observation period : for 14 days after the administration The results are shown in Table 3.

[11] = concentration of the drug in blood after oral administration to mice; type: in vivo, male ICR strain mice; parameters: unit not given here; conditions: 20 mg/kg suspended in 5% gum arabic, bioassay (Bacillus cereus S1101)
Experimental: Three male ICR strain mice (4 weeks old) for each group were administered orally with the test drug, and the change of the concentration of the drug in blood was measured with the lapse of time. Dose of drug: 20 mg/kg (suspended in 5% gum arabic) Quantitative method: Bioassay method (test bacteria: Bacillus cereus S1101)

concentration of the drug in blood ([11]; 0.25 hour after administration)	concentration of the drug in blood ([11]; 0.5 hour after administration)	concentration of the drug in blood ([11]; 1.0 hour after administration)	concentration of the drug in blood ([11]; 2.0 hour after administration)	concentration of the drug in blood ([11]; 4.0 hour after administration)	SMILES	antibacterial activity [1]	antibacterial activity [2]	antibacterial activity [3]	antibacterial activity [4]	antibacterial activity [5]	antibacterial activity [6]	antibacterial activity [7]	antibacterial activity [8]	antibacterial activity [9]	Mortality [10]
					C#CCSC1=C(C(=O)[O-])N2C(=O)[C@@H](NC(=O)/C(=N\O)c3csc(N)n3)[C@H]2SC1.[Na+] [A, 7β-{2-(2-aminothiazol-4-yl)-2-[(Z)-hydroxyimino]-acetamido}-3-(2-propynyl)thio-3-cephem-4-carboxylic acid sodium salt]	1.56	0.20	0.20	0.05	0.10	0.10	0.78	0.20	0.20	0/3
					C=CC1=C(C(=O)O)N2C(=O)[C@@H](NC(=O)/C(=N\OCC(=O)O)c3csc(N)n3)[C@H]2SC1 [B, Cefixime]	>100	0.39	0.05	0.025	0.20	0.025	0.20	25	25	
1.8	2.0	2.5	1.2	0.1	C=CC1=C(C(=O)O)N2C(=O)[C@@H](NC(=O)/C(=N\O)c3csc(N)n3)[C@H]2SC1 [C, Cefnidir]	1.56	0.39	0.39	0.10	0.78	0.20	0.78	0.39	0.39	
					C=CCSC1=C(C(=O)[O-])N2C(=O)[C@@H](NC(=O)/C(=N\O)c3csc(N)n3)[C@H]2SC1.[Na+] [D, 7β-{2-(2-aminothiazol-4-yl)-2-[(Z)-hydroxyimino]acetamido}-3-allylthio-3-cephem-4-carboxylic acid sodium salt]	3.13	0.39	0.39	0.20	0.20	0.20	1.56	0.20	0.20	2/3
14.0	18.4	15.4	8.4	4.0	C#CCSC1=C(C(=O)OCOC(=O)C(C)(C)C)N2C(=O)[C@@H](NC(=O)/C(=N\O)c3csc(N)n3)[C@H]2SC1 [E, pivaloyloxymethyl 7β-{2-(2-aminothiazol-4-yl)-2-[(Z)-hydroxyimino]acetamido}-3-(2-propynyl)thio-3-cephem-4-carboxylate]										
